Source: patent US20220184091A1, “Methods of Treating Cancer with Chk1 Inhibitors” (Sierra Oncology, Inc., priority 2019, published 2022)

What was measured:
5637 = test: Cell viability, bladder cancer line 5637; type: cell-based
IFNβ, CXCL10 and CCL5 [1] = test: qPCR of IFNβ, CXCL10 and CCL5 in resected RPP tumors; type: in vivo, mouse
Protocol: Data presented as mean±SD and p values by t-test * p<0.05, **p<0.01, ***p<0.001.
(§1) Real-time PCR was done using SYBR Select Master Mix (Life Technologies, cat #4472908) according to the manufacturer's protocol. Primers were purchased from Sigma Aldrich, Inc. Triplicate PCR reactions were run on ABI (7500 Fast Real Time PCR System). The comparative Ct method using the average 2ΔΔCT value for each set of triplicates was used, and the average of the biological replicates was calculated. Negative controls were included for every primer set, and GAPDH was used as the […].

MC38 = MC38 colon flank tumor growth in immunocompetent mice; type: in vivo, mouse
Protocol: Tumors were evaluated twice weekly for the duration of the study. Tumor volumes were measured on all mice three times per week and calculated (width^2×length×0.4) using manual calipers. Once the average tumor size was in the range of 120-150 mm^3, mice were randomized into dosing groups using stratified sampling by assigning three animals per group for short-term reverse-phase protein array analysis and long-term treatment. Dosing schedules and duration varied depending on the study. Mice were weighed three times per week for the duration of the study, and a decrease in body weight >15% was considered indicative of a toxic dose. The Student t-test was used to determine statistical significance between compound- and vehicle-treated groups.
Tumors cells were implanted into the flank of immunocompetent mice. Once the volumes of the tumor reached 150-200 mm^3, the mice were randomized and treated with either monotherapy of SRA737 at 100 mg/kg for 5-days-on/2-days-off p.o., anti-PD1 BIW at 10 mg/kg i.p. or the combination thereof.

[2] = Phase 1 clinical study, SRA737 monotherapy dose escalation; conditions: human, in vivo
Protocol: A Phase 1 clinical trial was conducted in ‘all comers,’ i.e. no genetic selection was performed, to establish safety, tolerability and pharmacokinetics (“Dose Escalation Phase”). Cohorts consisting initially of a single subject received escalating doses of SRA737, starting in Cohort 1 with 20 mg/day administered orally on a continuous daily dosing schedule in 28 day cycles. the dose was escalated until the maximum tolerated dose (MTD) was identified.
In the Dose Escalation Phase, 18 subjects received SRA737 in 9 dose level cohorts, from 20 to 1300 mg QD; median treatment duration 62.5 days (range 1 to 226). […] Two of 3 subjects experienced DLTs at the 1300 mg once daily dose, each being an inability to receive 75% of the planned SRA737 dose due to GI intolerability, with the individual GI effects being low grade. […] A cohort receiving 500 mg twice daily was added to determine if a twice daily dosing schedule can improve GI tolerability, given the half-life of SRA737 is approximately 10 hours. One of 6 subjects experienced DLTs in the 500 mg twice daily cohort; this was an inability to receive 75% of the planned SRA737 dose due to grade 4 thrombocytopenia with grade 3 neutropenia and anemia.

STING pathway = test: Western blot of STING pathway markers in SCLC cell lines; type: cell-based; conditions: H1694 and H847 cell lines; 1 μM; 24 and 72 hours
Protocol: Western blot analysis was performed using SDS-PAGE followed by transfer to nitrocellulose membrane using the BioRad Gel system. Membranes were incubated in the following primary antibodies (1:1000) overnight: PD-L1 (CST), total and phospho- (S366) STING (CST), total and phospho- (S396) IRF3 (CST), phospho-YH2AX (CST) and Actin (Sigma). Secondary anti-rabbit, HRP-linked antibodies were purchased from Cell Signaling Biosciences and detected using the Chemidoc imaging system mage-captured with Image Studio Version 3.1 software.

[3] = Phase 1 clinical study, SRA737 in combination with gemcitabine, dose escalation; type: in vivo; conditions: human, mean
Protocol: A Phase 1 clinical trial was conducted in ‘all comers,’ i.e. no genetic selection was performed, to establish safety, tolerability and pharmacokinetics for SRA737 administered in combination with gemcitabine (“Dose Escalation Phase”). Cohorts consisting initially of a single subject received escalating doses of SRA737, starting in Cohort 1 with 40 mg/day administered orally on days 2, 3, 9, 10, 16, and 17 of each 28-day cycle. Cohorts also received various doses of gemcitabine, starting in Cohort 1 with 300 mg/m^2/day administered IV over 30 minutes on days 1, 8, and 15 of each 28-day cycle.
FIG. 5 presents a summary of dosing amounts for the cohorts tested. In the Dose Escalation Phase, a total of 55 subjects received SRA737 in 13 dose escalation cohorts at doses of 40 to 600 mg SRA737 combined with LDG doses of 50 to 300 mg/m^2.

IFNβ, CXCL10 and CCL5 [4] = test: qPCR of IFNβ, CXCL10 and CCL5 mRNA in SCLC cell lines; type: cell-based; conditions: 24 and 72 hours
Protocol: “Con” indicates control. Data presented as mean±SD and p values by t-test ***p<0.001.
as §1

CD4+ and CD8+ cells = test: CD4 and CD8 IHC staining in MC38 tumors; type: in vivo, mouse; conditions: after 14 days, SRA737 7-days-on/7-days-off, antibody Days 3, 7 and 11
Protocol: Measurements were taken post treatment on day 15.
For immunohistochemistry, cryosections (8 μm) of tumor tissues were fixed with acetone and stained with antibody against mouse CD4 (Sinobiological, Cat. no. 50134-R001) and CD8 (eBioscience, Cat. No. 14-0808-82) and horseradish peroxidase-conjugated secondary antibody. The image of the entire stained tumor section was scanned with an Olympus BX41 microscope and a semi-quantitative immunohistochemical score was determined by visual examination of the entire stained section of the tumor. The score between 0-6 was assigned by taking into consideration the intensity of positive staining within the tumor section and the prevalence of positive staining within the entire tumor section.
The MC38 tumors were then harvested after 14 days of treatment with SRA737 monotherapy and its combination therapy with an […] (Days 3, 7 and 11) according to a modified dosing regimen of 7-days-on/7-days-off to determine the infiltration of CD4+ and CD8+ cells by immunohistochemistry staining. […] The tumor growth inhibition under this altered dosing regimen was 61% in SRA737 monotherapy and 63% in the combination therapy of SRA737 and anti-PD-1. […]

SW1990 = test: Cell viability, pancreatic cancer line SW1990; type: cell-based; conditions: Homo sapiens
[5] = 600 mg, Day 10, combination with gemcitabine

IC50 5637: 2100 nM | doses that exceeded the level effective in preclinical models [2]: ≥ 300 mg | T1/2 ([2]; 800 mg): 10.3 h | AUC0-24 ([3]; 40 mg, Day −7): 637 ng·h/mL | Cmax ([3]; 80 mg, Day −7): 146 ng/mL | Cmax ([3]; 300 mg, Day −7): 995 ng/mL | AUC0-12 [3, 5]: 11,860 ng · h/mL | Cmax [3, 5]: 2,109 ng/mL | T1/2 ([3]; 600 mg, Day −7): 11.1 h | IC50 (SW1990): 700 nM
Compound: N#Cc1cnc(Nc2cc(NCC3CNCCO3)c(C(F)(F)F)cn2)cn1 (centres unmarked) [SRA737, 5-[[4-[[morpholin-2-yl]methylamino]-5-(trifluoromethyl)-2-pyridyl]amino]pyrazine-2-carbonitrile]
gene expression levels of IFNβ, CXCL10 and CCL5 vs vehicle (IFNβ, CXCL10 and CCL5 [1]; RPP tumors at Day 21, 100 mg/kg 5-days-on/2-days-off): higher gene expression levels | expression of IFNβ, CCL5 and CXCL10 (IFNβ, CXCL10 and CCL5 [1]; RPP tumors resected at Day 21, SRA737 2-days-on/5-days-off): Neither LDG nor SRA737 monotherapy (2-days-on/5-days-off) showed any significant effect | TGI (MC38; SRA737 100 mg/kg 5-days-on/2-days-off p.o., anti-PD1 BIW 10 mg/kg i.p.): 48% | tumor growth inhibition (MC38; altered regimen SRA737 7-days-on/7-days-off, anti-PD-1 Days 3, 7 and 11): 61% | STING pathway (pSTING_S366, STING, pIRF3_S396 and IRF3) (STING pathway): Activation of the STING pathway | IFNβ, CXCL10 and CCL5 (targets of IRF3) (IFNβ, CXCL10 and CCL5 [4]): activated | infiltration of CD4+ and CD8+ cells into the tumors (CD4+ and CD8+ cells): significant increase
